# Data from article PMC6823370, “A novel nucleoside rescue metabolic pathway may be responsible for therapeutic effect of orally administered cordycepin” (Scientific Reports, 2019).
# Read-outs that look alike come from different tables or passages of the source.
# Legend:
# RAW264.7 cells = test: Repression of inflammatory gene expression in LPS-stimulated RAW264.7 cells (qPCR); type: cell-based, mouse; conditions: for effect of pre-treatment on the inhibitory effect of cordycepin on inflammatory gene expression: LPS
# Experimental: RAW 264.7 mouse macrophage cells were cultured in DMEM supplemented with 10% FBS. Prior to experiments, cells were washed with PBS and cells were maintained in DMEM with 0.5% FBS or 10% FBS for 24 h. LPS was added at 1 µg/mL, 1 h before compound treatment, when needed. When the cells were analysed for concentration levels of cordycepin, 3′-deoxyinosine and CordyTP, the cells were washed twice with PBS. The cells were then treated with methanol and mixed vigorously before the mixture was harvested. The mixture was filtered using filter tubes mentioned above and the filtrate was analysed by liquid chromatography coupled with tandem mass spectrometry (LC-MS/MS). For determination of relative mRNA levels, RNA was isolated from the lysates using an RNA isolation kit, following manufacturer’s protocol (Promega, Madison, WI, cat no. Z6012). RNA was reverse transcribed to cDNA using SuperScript™ III reverse transcriptase (Invitrogen, Carlsbad, CA). Quantitative polymerase chain reaction (qPCR), was performed with Qiagen Rotor-Gene Q qPCR machine (Qiagen, Hilden, Germany) using Promega SYBR Green GoTaq® qPCR master mix (Promega).
# Figure 3 Repression effect on inflammatory gene expression. (a) NBTI or ITu treatment prior to cordycepin treatment suppresses effect of cordycepin. RAW264.7 cells were treated with 10 µM NBTI, 100 nM ITu or DMSO (Ctrl, control) 15 min prior to cordycepin treatment. The cells were stimulated with LPS 1 h after cordycepin treatment (mean ± SD, n = 3). **p < 0.01; ***p < 0.001 compared to DMSO treatment (labelled as Ctrl). (b) 3′-deoxyinosine exerts same repression effect as cordycepin, although to a lesser degree. RAW264.7 cells were treated with 20 µM cordycepin, 20 µM 3′-deoxyinosine (3DI) or DMSO (Ctrl, control) for 1 h prior to LPS stimulation (mean ± SD, n = 3). **p < 0.01; ***p < 0.001 compared to without compound treatment (labelled as LPS).
# [1] = In vivo pharmacokinetics in rats after intravenous or oral cordycepin; design: species or system Sprague Dawley rats; conditions: male, Sprague Dawley; for C0: in vivo, read-out: C0 of 3′-deoxyinosine; for Vd: plasma, rat, read-out: Vss of 3′-deoxyinosine
# Experimental: Protocols for the animal experiments in this study were reviewed and approved by the University of Nottingham Ethical Review Committee in accordance with the Animals [Scientific Procedures] Act 1986. Four male Sprague Dawley rats (Charles River Laboratories, UK) of 300–350 g body weight were used. The animals were housed in the Bio Support Unit, University of Nottingham at controlled temperature, 12 h light/dark cycle and free access to food and water. The animals were allowed to acclimatise for at least six days prior to any procedures.
# Prior to pharmacokinetic studies, jugular vein cannulation surgery was performed under general anaesthesia (<3% isoflurane inhalation) for blood sampling or intravenous drug administration. Following two nights of recovery from surgery, the animals were intravenously or orally administered with the PBS-based formulation (5.5 mg/mL cordycepin) developed in a previously reported study. The dose was 8 or 20 mg/kg for intravenous administration and 8 or 80 mg/kg for oral administration. […] When whole blood was analysed, an aliquot was withdrawn immediately after mixing with the pretreated pentostatin. Otherwise, the mixture was centrifuged (3000 g, 10 min) to obtain plasma and samples were stored within the storage conditions tested prior to analysis.
# (§1) Samples from Caco-2 permeability, in vitro determination of CordyTP formation and in vivo experiments were subjected to protein precipitation followed by LC-MS/MS analysis. To 50 µL of rat plasma sample, 150 µL of internal standard solution (1.67 µg/mL 2-chloroadenosine in methanol) was added. The samples were then vortex-mixed for 10 s and were centrifuged for 3 min at 17949 g. Supernatant (20 µL) was collected and diluted 10-fold with DDW before injection into the LC-MS/MS for analysis of cordycepin and 3′-deoxyinosine. For analysis of CordyTP, the supernatant was filtered using filter tubes mentioned above and injected without dilution. Tissue samples were homogenised using Bullet Blender Gold (Next Advance, Inc., Troy, NY) in methanol (1:3 w/v) and centrifuged for 3 min at 17949 g. The supernatant was filtered and injected for analysis of CordyTP or diluted 10-fold with DDW for analysis of cordycepin and 3′-deoxyinosine. The LC-MS/MS system was a API4000 QTrap (AB Sciex, Warrington, UK) equipped with HPLC setup of SCL10Avp controller, LC10ADvp pump and SILHTC autosampler (Shimadzu, Milton Keynes, UK). Three different methods were utilised for each compound and multiple reaction monitoring parameters of the MS/MS conditions are shown in Table 1. The HPLC conditions including stationary phases and specific mass spectrometry parameters are shown in Supplementary Information 2. The LC-MS/MS method for cordycepin was fully validated in terms of accuracy, precision, sensitivity, selectivity, linearity and sample storage stability in accordance with the Guidance for Industry, Bioanalytical Method Validation, (2018) published by the US FDA (refer to Supplementary Information 3 for validation procedures and results)[53].
# Data are presented as mean ± standard deviation (SD). A two-tailed unpaired t-test was applied for assessment of statistical significance of differences between two groups. For three or more groups, the statistical significance was assessed by application of a one-way ANOVA followed by Tukey’s multiple comparisons test. A p-value lower than 0.05 was deemed statistically significant. Statistical analyses were conducted using GraphPad Prism version 7.01 (GraphPad Software, Inc., La Jolla, CA, USA). Pharmacokinetic parameters were obtained by non-compartmental analysis using Phoenix WinNonlin 6.3 software (Pharsight, Mountain View, CA, USA).
# For calculation of pharmacokinetic parameters, the plasma concentration-time curve was plotted in a semi-log scale. From the plot, the elimination rate constant (ke) was calculated. Elimination half-life (t1/2) wasthen calculated using the following equation: […]
# Caco-2 permeability = type: in vitro ADME; conditions: human, Caco-2; read-out: Papp of 3′-deoxyinosine, A to B
# Experimental: (§2) Caco-2 permeability assays were conducted following previously reported methods with 21-day maintenance on the Corning 24-well Transwell® (Fisher Scientific, Loughborough, UK)[48]. […] Both directions of apical-to-basolateral and basolateral-to-apical were tested. […] The experiments were conducted in triplicates.
# as §1
# Caco-2 cells = test: Caco-2 permeability; type: in vitro ADME; conditions: cells treated with cordycepin in the absence of pentostatin
# Experimental: as §2, §1
structure (smiles),measurement,setting,value
OC[C@@H]1C[C@@H](O)[C@H](n2cnc3c(O)ncnc32)O1 [3′-deoxyinosine],effect on expression of inflammatory genes,"RAW264.7 cells; 20 µM, 1 h prior to LPS stimulation",suppressed expression of inflammatory genes
same,C0,"[1]; rat plasma, intravenous cordycepin 8 mg/kg",5730 ± 1630 ng/mL
same,C0,"[1]; rat plasma, intravenous cordycepin 20 mg/kg",16300 ± 3870 ng/mL
same,Vd,[1]; intravenous cordycepin 8 mg/kg,2.8 ± 0.3 L/kg
same,Vd,[1]; intravenous cordycepin 20 mg/kg,3 ± 0.7 L/kg
same,Cmax,"[1]; rat plasma, oral cordycepin 8 mg/kg, read-out: Cmax of 3′-deoxyinosine",202 ± 98 ng/mL
same,"Papp A→B at 120 min, 200 µM",Caco-2 permeability,~0.2 ×10⁻⁶ cm/s
same,permeation of 3′-deoxyinosine,Caco-2 cells,detected
"Nc1ncnc2c1c(I)cn2[C@@H]1O[C@H](CO)[C@@H](O)[C@H]1O [ITu, 5-iodotubericidin, reference compound]",effect of pre-treatment on the inhibitory effect of cordycepin on inflammatory gene expression,RAW264.7 cells; 100 nM ITu 15 min prior to cordycepin,inhibit the inhibitory effect of cordycepin
"O=[N+]([O-])c1ccc(CSc2ncnc3c2ncn3[C@@H]2O[C@H](CO)[C@@H](O)[C@H]2O)cc1 [NBTI, S-(4-nitrobenzyl)-6-thioinosine, reference compound]",effect of pre-treatment on the inhibitory effect of cordycepin on inflammatory gene expression,RAW264.7 cells; 10 µM NBTI 15 min prior to cordycepin,inhibit the inhibitory effect of cordycepin
